Data reported in the NIST ThermoML archive (doi:10.1016/j.jct.2008.02.020).

Conditions: Liquid, Buoyancy - hydrostatic balance with magnetic suspension - one sinker

CCCCCCC [heptane]
Conditions	mass density [kg/m3]
233.15 K, 101.68 kPa	733.289
233.15 K, 1104.1 kPa	733.918
233.15 K, 2003.3 kPa	734.481
233.15 K, 4006 kPa	735.714
233.15 K, 6004.8 kPa	736.928
233.15 K, 8009.5 kPa	738.125
233.15 K, 9956.8 kPa	739.277
233.15 K, 11864 kPa	740.377
233.15 K, 13984 kPa	741.588
233.15 K, 15995 kPa	742.722
233.15 K, 17888 kPa	743.774
233.15 K, 20074 kPa	744.977
233.15 K, 22024 kPa	746.029
233.15 K, 24018 kPa	747.094
233.15 K, 25954 kPa	748.113
233.15 K, 27944 kPa	749.147
233.15 K, 29979 kPa	750.192
253.15 K, 98.99 kPa	717.086
253.15 K, 1101.5 kPa	717.807
253.15 K, 2000.5 kPa	718.446
253.15 K, 4006.3 kPa	719.85
253.15 K, 6005.4 kPa	721.223
253.15 K, 8147.8 kPa	722.669
253.15 K, 10096 kPa	723.959
253.15 K, 11827 kPa	725.088
253.15 K, 13955 kPa	726.459
253.15 K, 16060 kPa	727.785
253.15 K, 18040 kPa	729.014
253.15 K, 20020 kPa	730.22
253.15 K, 22093 kPa	731.465
253.15 K, 23828 kPa	732.495
253.15 K, 25891 kPa	733.701
253.15 K, 27739 kPa	734.762
253.15 K, 29900 kPa	735.987
273.15 K, 102.15 kPa	700.687
273.15 K, 1101.3 kPa	701.507
273.15 K, 2006.3 kPa	702.244
273.15 K, 4005.4 kPa	703.841
273.15 K, 6005.5 kPa	705.403
273.15 K, 8197.5 kPa	707.077
273.15 K, 10109 kPa	708.507
273.15 K, 12114 kPa	709.976
273.15 K, 14092 kPa	711.403
273.15 K, 16116 kPa	712.831
273.15 K, 18076 kPa	714.19
273.15 K, 20096 kPa	715.565
273.15 K, 22069 kPa	716.883
273.15 K, 24102 kPa	718.226
273.15 K, 25918 kPa	719.397
273.15 K, 27991 kPa	720.718
273.15 K, 29444 kPa	721.633
293.15 K, 98.89 kPa	683.986
293.15 K, 1104.3 kPa	684.937
293.15 K, 2003.3 kPa	685.779
293.15 K, 4003 kPa	687.611
293.15 K, 6003.7 kPa	689.394
293.15 K, 8007.4 kPa	691.14
293.15 K, 10028 kPa	692.854
293.15 K, 12139 kPa	694.603
293.15 K, 14008 kPa	696.118
293.15 K, 16160 kPa	697.827
293.15 K, 18149 kPa	699.368
293.15 K, 19992 kPa	700.756
293.15 K, 22123 kPa	702.362
293.15 K, 24036 kPa	703.766
293.15 K, 25999 kPa	705.175
293.15 K, 27983 kPa	706.576
293.15 K, 29986 kPa	707.965
313.15 K, 101.45 kPa	666.898
313.15 K, 1102.2 kPa	667.995
313.15 K, 2005.5 kPa	668.973
313.15 K, 4004.5 kPa	671.086
313.15 K, 6106.9 kPa	673.238
313.15 K, 7941.2 kPa	675.062
313.15 K, 9944.4 kPa	676.997
313.15 K, 11841 kPa	678.793
313.15 K, 13782 kPa	680.575
313.15 K, 16032 kPa	682.588
313.15 K, 17876 kPa	684.2
313.15 K, 19748 kPa	685.804
313.15 K, 21803 kPa	687.518
313.15 K, 23829 kPa	689.172
313.15 K, 25814 kPa	690.765
313.15 K, 27801 kPa	692.324
313.15 K, 29818 kPa	693.872
333.15 K, 103 kPa	649.298
333.15 K, 1106 kPa	650.588
333.15 K, 2004.1 kPa	651.723
333.15 K, 4003.6 kPa	654.18
333.15 K, 6004.6 kPa	656.549
333.15 K, 8005.6 kPa	658.837
333.15 K, 9901.5 kPa	660.933
333.15 K, 12083 kPa	663.274
333.15 K, 14040 kPa	665.309
333.15 K, 16005 kPa	667.293
333.15 K, 17854 kPa	669.109
333.15 K, 19985 kPa	671.149
333.15 K, 21967 kPa	672.997
333.15 K, 23926 kPa	674.778
333.15 K, 25823 kPa	676.467
333.15 K, 27823 kPa	678.205
333.15 K, 30009 kPa	680.058
353.15 K, 99.37 kPa	631.037
353.15 K, 1182.8 kPa	632.68
353.15 K, 2156.3 kPa	634.131
353.15 K, 4140.7 kPa	636.982
353.15 K, 6175.6 kPa	639.78
353.15 K, 8138.9 kPa	642.37
353.15 K, 10095 kPa	644.851
353.15 K, 12083 kPa	647.284
353.15 K, 14040 kPa	649.596
353.15 K, 16039 kPa	651.883
353.15 K, 18008 kPa	654.064
353.15 K, 19996 kPa	656.201
353.15 K, 21956 kPa	658.247
353.15 K, 23925 kPa	660.247
353.15 K, 25887 kPa	662.188
353.15 K, 27855 kPa	664.084
353.15 K, 29976 kPa	666.077
373.15 K, 1164.3 kPa	613.877
373.15 K, 2149.2 kPa	615.631
373.15 K, 4123.5 kPa	618.999
373.15 K, 5987 kPa	622.014
373.15 K, 8094.8 kPa	625.262
373.15 K, 10060 kPa	628.151
373.15 K, 12066 kPa	630.972
373.15 K, 14018 kPa	633.61
373.15 K, 16044 kPa	636.241
373.15 K, 18058 kPa	638.765
373.15 K, 19976 kPa	641.085
373.15 K, 21960 kPa	643.408
373.15 K, 23948 kPa	645.665
373.15 K, 25805 kPa	647.712
373.15 K, 27898 kPa	649.952
373.15 K, 29819 kPa	651.952
393.15 K, 1101.9 kPa	593.952
393.15 K, 2001.5 kPa	595.905
393.15 K, 4002.8 kPa	600.027
393.15 K, 6004.3 kPa	603.884
393.15 K, 8005.5 kPa	607.511
393.15 K, 10007 kPa	610.942
393.15 K, 12111 kPa	614.361
393.15 K, 14116 kPa	617.466
393.15 K, 16097 kPa	620.399
393.15 K, 18029 kPa	623.142
393.15 K, 20054 kPa	625.904
393.15 K, 22016 kPa	628.483
393.15 K, 24006 kPa	631.008
393.15 K, 25986 kPa	633.434
393.15 K, 27952 kPa	635.769
393.15 K, 29843 kPa	638.037
